Results taken from patent publication US20100291151A1, “1-METHYLPYRAZOLE MODULATORS OF SUBSTANCE P, CALCITONIN GENE-RELATED PEPTIDE, ADRENERGIC RECEPTOR, AND/OR 5-HT RECEPTOR” (priority 2009, published 2010).

What was measured:
Type in all cases: in vitro ADME
Supersomes CYP3A4 = target: T1, Supersomes CYP3A4 (Homo sapiens, UniProt P08684); experiment: Individual recombinant CYP isoform stability assay, CYP3A4; conditions: 100 pmol per mL CYP3A4, 5 microgram per mL compound, 37° C., 0-60 minutes
T1 construct: purchased
T1 sequence (P08684 whole entry, canonical isoform): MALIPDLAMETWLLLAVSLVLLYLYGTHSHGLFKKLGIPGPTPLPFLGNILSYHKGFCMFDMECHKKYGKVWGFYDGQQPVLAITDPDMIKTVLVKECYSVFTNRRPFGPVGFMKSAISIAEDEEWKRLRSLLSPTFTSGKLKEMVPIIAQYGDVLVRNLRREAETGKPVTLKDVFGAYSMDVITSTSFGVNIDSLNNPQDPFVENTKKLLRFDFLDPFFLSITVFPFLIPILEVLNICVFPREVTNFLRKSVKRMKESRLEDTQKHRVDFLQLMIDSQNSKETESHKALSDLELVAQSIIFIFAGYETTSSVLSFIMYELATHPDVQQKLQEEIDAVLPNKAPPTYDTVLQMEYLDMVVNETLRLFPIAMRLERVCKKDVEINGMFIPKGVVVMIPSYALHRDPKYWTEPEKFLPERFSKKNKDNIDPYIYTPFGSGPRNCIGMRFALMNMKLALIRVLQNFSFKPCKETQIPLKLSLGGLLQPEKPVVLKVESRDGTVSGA
Experimental: (§1) In Vitro Individual Recombinant CYP Isoform Stability Assays
(§2) Individual recombinant CYP isoform stability assays were conducted with Supersomes™ CYP2C19, CYP3A4, CYP3A5, CYP2D6, CYP2C8, and CYP2C9. The CYP isoforms were individually taken up in a NADPH-generating system (4.4 mM NADPH, 51.2 mM glucose 6-phosphate, 12 units per mL glucose 6-phosphate dehydrogenase and 6.6 mM magnesium chloride) in 2% sodium bicarbonate. The final assay concentrations were 100 pmol per mL for the following isoforms: CYP3A4, CYP2C19, and CYP2D6; other CYP isoforms final assay concentrations were 150 pmol per mL, including: CYP1A2 and CYP2C9; and yet other CYP isoforms final assay concentrations were 200 pmol per mL, including: CYP3A5 and CYP2C8. Test compounds were prepared as solutions in 20% acetonitrile-water and added to the assay mixture (final assay concentration 5 microgram per mL) and incubated at 37° C. Final concentration of acetonitrile in the assay should be <1%. Aliquots (50 μL) were taken out at times 0, 15, 30, 45, and 60 minutes, and diluted with ice cold acetonitrile (200 μL) to stop the reactions. Samples were centrifuged at 12,000 RPM for 10 minutes to precipitate proteins. Supernatants were transferred to microcentrifuge tubes and stored for LC/MS/MS analysis of the degradation half-life of the test compounds. […]

Supersomes CYP3A5 = target: T2, Supersomes CYP3A5 (Homo sapiens, UniProt P20815); experiment: Individual recombinant CYP isoform stability assay, CYP3A5; conditions: 200 pmol per mL CYP3A5, 5 microgram per mL compound, 37° C., 0-60 minutes
T2 construct: purchased
T2 sequence (P20815 whole entry, canonical isoform): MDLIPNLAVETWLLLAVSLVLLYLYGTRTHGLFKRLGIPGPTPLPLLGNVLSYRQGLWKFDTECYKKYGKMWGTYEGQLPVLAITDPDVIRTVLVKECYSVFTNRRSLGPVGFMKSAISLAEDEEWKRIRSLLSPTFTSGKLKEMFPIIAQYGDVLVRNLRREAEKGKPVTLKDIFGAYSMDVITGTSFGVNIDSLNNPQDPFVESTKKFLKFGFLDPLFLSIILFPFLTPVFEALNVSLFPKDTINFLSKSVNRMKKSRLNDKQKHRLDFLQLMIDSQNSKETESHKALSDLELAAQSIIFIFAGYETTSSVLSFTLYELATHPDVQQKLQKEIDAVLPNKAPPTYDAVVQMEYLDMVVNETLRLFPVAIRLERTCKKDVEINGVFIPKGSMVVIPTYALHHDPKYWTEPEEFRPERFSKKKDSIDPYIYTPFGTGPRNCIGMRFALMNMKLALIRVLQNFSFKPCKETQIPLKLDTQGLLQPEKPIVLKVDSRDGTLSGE
Experimental: as §1, §2

Supersomes CYP2C8 = target: T3, Supersomes CYP2C8 (Homo sapiens, UniProt P10632); experiment: Individual recombinant CYP isoform stability assay, CYP2C8; conditions: 200 pmol per mL CYP2C8, 5 microgram per mL compound, 37° C., 0-60 minutes
T3 construct: purchased
T3 sequence (P10632 1-490): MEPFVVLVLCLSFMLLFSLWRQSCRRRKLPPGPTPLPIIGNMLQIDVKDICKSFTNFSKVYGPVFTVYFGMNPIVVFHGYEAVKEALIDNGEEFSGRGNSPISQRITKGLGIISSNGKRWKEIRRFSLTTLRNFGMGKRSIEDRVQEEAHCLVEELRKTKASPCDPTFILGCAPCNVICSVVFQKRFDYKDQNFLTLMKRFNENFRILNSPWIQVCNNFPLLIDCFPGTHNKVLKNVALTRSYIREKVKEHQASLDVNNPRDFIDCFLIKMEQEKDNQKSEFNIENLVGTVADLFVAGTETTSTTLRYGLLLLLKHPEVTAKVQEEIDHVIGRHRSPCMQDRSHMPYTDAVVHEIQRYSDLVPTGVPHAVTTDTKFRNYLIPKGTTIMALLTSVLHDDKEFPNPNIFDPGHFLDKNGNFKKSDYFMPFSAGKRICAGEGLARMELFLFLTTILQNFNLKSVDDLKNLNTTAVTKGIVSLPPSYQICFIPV
Experimental: as §1, §2

Supersomes CYP2C9 = target: T4, Supersomes CYP2C9 (Homo sapiens, UniProt P11712); experiment: Individual recombinant CYP isoform stability assay, CYP2C9; conditions: 150 pmol per mL CYP2C9, 5 microgram per mL compound, 37° C., 0-60 minutes
T4 construct: purchased
T4 sequence (P11712 whole entry, canonical isoform): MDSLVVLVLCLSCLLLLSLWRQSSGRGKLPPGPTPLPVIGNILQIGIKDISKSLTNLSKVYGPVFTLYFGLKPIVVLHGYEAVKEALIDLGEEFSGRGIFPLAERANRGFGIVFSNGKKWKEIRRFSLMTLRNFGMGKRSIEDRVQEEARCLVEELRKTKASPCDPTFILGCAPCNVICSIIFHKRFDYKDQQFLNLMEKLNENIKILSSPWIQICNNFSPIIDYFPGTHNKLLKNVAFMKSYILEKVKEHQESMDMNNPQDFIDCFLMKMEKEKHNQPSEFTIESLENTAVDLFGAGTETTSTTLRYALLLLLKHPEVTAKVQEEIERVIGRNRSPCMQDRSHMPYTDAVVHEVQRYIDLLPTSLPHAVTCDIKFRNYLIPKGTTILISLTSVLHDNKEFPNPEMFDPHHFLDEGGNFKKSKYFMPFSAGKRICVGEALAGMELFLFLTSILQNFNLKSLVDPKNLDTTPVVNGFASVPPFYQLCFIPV
Experimental: as §1, §2

CN(C)CCOC(c1ccccc1)c1ccnn1C (stereo not shown) [Cizolirtine, N,N-dimethyl-2-[(1-methyl-1H-pyrazol-5-yl)phenylmethoxy]ethanamine]
not metabolized: metabolism by CYP3A4 (Supersomes CYP3A4) | metabolism by CYP3A5 (Supersomes CYP3A5) | metabolism by CYP2C8 (Supersomes CYP2C8) | metabolism by CYP2C9 (Supersomes CYP2C9)
